Results on five compounds are retold here after patent US8309129B2, “Nanoparticles comprising a drug, ethylcellulose, and a bile salt” (Bend Research, Inc., priority 2007, dated 2012).

Common to all, as to format: physicochemical
Data set [1] can be described thus: Dynamic light scattering (DLS) of aqueous nanoparticle suspension as formed. The following applies: Tables 5 and 6; valdecoxib suspension samples. The text has this:
The nanoparticles are small particles comprising the drug, ethylcellulose, and a bile salt. By “nanoparticles” is meant a plurality of small particles in which the average size of the particles in suspension is less than about 500 nm. By “average size” is meant the effective cumulant diameter as measured by dynamic light scattering, using for example, Brookhaven Instruments' 90Plus particle sizing instrument. By “size” is meant the diameter for spherical particles, or the maximum diameter for non-spherical particles. Preferably, the average size of the nanoparticles is less than 400 nm, more preferably less 300 nm, more preferably less than 150 nm, more preferably less than 100 nm, and most preferably less than 75 nm.
The width of the particle size distribution in suspension is given by the “polydispersity” of the particles, which is defined as the relative variance in the correlation decay rate distribution, as is known by one skilled in the art. […]
The particle size of the nanoparticles in the aqueous suspension was determined using dynamic light scattering (DLS) as follows. […] Dynamic light-scattering was measured using a Brookhaven Instruments (Holtsville, N.Y.) BI-200SM particle size analyzer with a BI-9000AT correlator. The sums of exponentials from the autocorrelation functions were analyzed using CONTIN software to extract size distributions from the samples. […]

The next data set is described as follows: Measurement of free drug. How it is done: In one embodiment, the compositions of the present invention are capable of improving the concentration of dissolved drug in a use environment relative to a control composition consisting essentially of the drug alone without any ethylcellulose or bile salt. In order to determine concentration enhancement in vitro, the amount of “free” drug, or solvated drug is measured. By “free” drug is meant drug which is in the form of dissolved drug or present in micelles, but which is not in the nanoparticles or any solid particles larger than 500 nm, such as precipitate. A composition of the invention provides concentration enhancement if, when administered to an aqueous use environment, it provides a free drug concentration that is at least 1.25-fold the free drug concentration provided by the control composition. Preferably, the free drug concentration provided by the compositions of the invention are at least about 1.5-fold, more preferably at least about 2-fold, and most preferably at least about 3-fold that provided by the control composition.
The amount of free drug provided by a suspension of the nanoparticles of Example 11 was measured using the following procedure. […]
The amount of free drug provided by a suspension of the nanoparticles of Example 12 was measured as follows. […]

Data set [2] in a line: Nanoparticle dissolution test of valdecoxib in Hank's buffer. The following applies: percent of total drug released per minute, 10 μg/mL, 37° C. As to the method: The dissolution rate of valdecoxib from nanoparticles of Example 12 was measured using the dissolution test as follows. The spray-dried composition of Example 12 were added to Hank's buffer to obtain a valdecoxib concentration of about 1 mgA/mL. The suspension was diluted to 10 μg/mL by adding 0.2 mL suspension to 20 mL buffer. The diluted suspension was placed on a shaker table in a 37° C. chamber, and aliquots were removed at 2, 5, and 10 minutes. The aliquots were centrifuged for 5 minutes at 12,000 rpm using a 30,000-dalton molecular-weight cutoff centrifuge tube filter, and 100 μL of the supernatant was added to 250 μL acetonitrile. The samples were assayed by HPLC. Crystalline drug alone was tested for comparison. The dissolution rate for nanoparticles of the invention was 3.6 times that of crystalline drug alone.

The next data set in a line: Solubility of the drug.
The mark [3] stands for this setting: water, read-out: solubility in water.
The mark [4] stands for this setting: MFD solution, fassgf or other biorelevant, read-out: solubility in MFD solution.

Each structure is given as a SMILES string. Values after ≈ are worked out from the molar mass of the structure shown. Where two headings read alike, the source gives them in different places. Where only a bound is given, the exact number is not on record here.

Regarding `Cc1onc(-c2ccccc2)c1-c1ccc(S(N)(=O)=O)cc1` [Crystalline Valdecoxib, valdecoxib], the “Average Particle Size” value in data set [1] is listed as more than 1000 nm. The “Free Drug” value in “Measurement of free drug” (Table 5, aqueous suspension prior to spray-drying, 100,000-dalton cutoff filtrate) is 11 µg/mL; in the data set “Measurement of free drug” (Table 6, spray-dried composition in dextrose solution, 100,000-dalton cutoff filtrate), 11 µg/mL. For the same compound, in data set [2], the “Dissolution Rate” value came out at 5.0 %/min.

For orientation: solubility means the concentration that dissolves in the medium under given conditions. `Cc1onc(-c2ccccc2)c1-c1ccc(S(N)(=O)=O)cc1` [Drug 2, 4-(5-methyl-3-phenyl-4-isoxazolyl)benzenesulfonamide]: in “Solubility of the drug” (setting [3]), the solubility is approximately 10 µg/mL (≈ 31.8 µM).

`CCOC(=O)N1c2ccc(C(F)(F)F)cc2[C@@H](N(Cc2cc(C(F)(F)F)cc(C(F)(F)F)c2)C(=O)OC)C[C@H]1CC` [Drug 3, [2R,4S]4-[(3,5-bis-trifluoromethyl-benzyl)-methoxycarbonyl-amino]-2-ethyl-6-trifluoromethyl-3,4-dihydro-2H-quinoline-1-carboxylic acid ethyl ester]: the solubility in the data set “Solubility of the drug” (setting [3]) is less than 0.1 µg/mL.

Regarding `CC[C@@H]1C[C@H](N(Cc2cc(C(F)(F)F)cc(C(F)(F)F)c2)C(C)=O)c2cc(C(F)(F)F)ccc2N1C(=O)OC(C)C` [Drug 4, [2R,4S]4-[acetyl-(3,5-bis-trifluoromethyl-benzyl)-amino]-2-ethyl-6-trifluoromethyl-3,4-dihydro-2H-quinoline-1-carboxylic acid isopropyl ester], the solubility in the data set “Solubility of the drug” (setting [4]) is approximately 11 µg/mL (≈ 18.4 µM). With `Cc1ccc(-c2cc(C(F)(F)F)nn2-c2ccc(S(N)(=O)=O)cc2)cc1` [Drug 1, 4-[5-(4-methylphenyl)-3-(trifluoromethyl)-1H-pyrazol-1-yl]benzenesulfonamide], in the data set “Solubility of the drug” (setting [4]), the solubility was approximately 40 µg/mL (≈ 105 µM).
